Assay results reported in the supplement of paper PMC10307832.

Legend:
Experiment in all cases: relative viability (nuclei count vs DMSO), 5 days (fraction); higher = more cells survive
[1] = compound: C1COCCN1C2=NC(=NC3=C2OC4=C3C=CC=N4)C5=CC(=CC=C5)NC(=O)C6=CN=C(C=C6)N + CC(=O)Nc1cccc(-n2c(=O)n(C3CC3)c(=O)c3c(Nc4ccc(I)cc4F)n(C)c(=O)c(C)c32)c1 [Trametinib] (partner 0.02 µM)
In short: (§1)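 Relative viability divides the nuclei count in treated wells by that in vehicle wells. Lung cancer cell lines were seeded in 1536-well plates, dosed by pin tool the next day, and fixed and stained after 5 days in one step with final 0.05% Triton X-100, 1% formaldehyde and 1 ug/ml Hoechst. Dosing was a single drug or a fixed anchor-drug dose plus five library-drug doses (not always all listed) in √10 steps, and values are medians of duplicate plates imaged at 4×.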

[2] = compound: C1COCCN1C2=NC(=NC3=C2OC4=C3C=CC=N4)C5=CC(=CC=C5)NC(=O)C6=CN=C(C=C6)N + Nc1nc2[nH]cc(CCc3ccc(C(=O)N[C@@H](CCC(=O)O)C(=O)O)cc3)c2c(=O)[nH]1 [Pemetrexed] (partner 0.2 µM)
In short: as §1

Entinostat + Alpelisib = compound: Nc1ccccc1NC(=O)c1ccc(CNC(=O)OCc2cccnc2)cc1 [Entinostat] + Cc1nc(NC(=O)N2CCC[C@H]2C(N)=O)sc1-c1ccnc(C(C)(C)C(F)(F)F)c1 [Alpelisib] (partner 2 µM)
In short: as §1

Entinostat + Decitabine = compound: Nc1ccccc1NC(=O)c1ccc(CNC(=O)OCc2cccnc2)cc1 [Entinostat] + Nc1ncn([C@H]2C[C@H](O)[C@@H](CO)O2)c(=O)n1 [Decitabine] (partner 2 µM)
In short: as §1

Cell Line	relative viability ([1]; first compound 0.02 µM)	relative viability ([1]; first compound 0.06325 µM)	relative viability ([1]; first compound 0.2 µM)	relative viability ([1]; first compound 0.6325 µM)	relative viability ([1]; first compound 2 µM)	relative viability ([2]; first compound 0.02 µM)	relative viability ([2]; first compound 0.06325 µM)	relative viability ([2]; first compound 0.2 µM)	relative viability ([2]; first compound 0.6325 µM)	relative viability ([2]; first compound 2 µM)	relative viability (Entinostat + Alpelisib; first compound 0.02 µM)	relative viability (Entinostat + Alpelisib; first compound 0.06325 µM)	relative viability (Entinostat + Alpelisib; first compound 0.2 µM)	relative viability (Entinostat + Alpelisib; first compound 0.6325 µM)	relative viability (Entinostat + Alpelisib; first compound 2 µM)	relative viability (Entinostat + Decitabine; first compound 0.02 µM)	relative viability (Entinostat + Decitabine; first compound 0.06325 µM)	relative viability (Entinostat + Decitabine; first compound 0.2 µM)	relative viability (Entinostat + Decitabine; first compound 0.6325 µM)	relative viability (Entinostat + Decitabine; first compound 2 µM)
NCI-H1437	0.492	0.551	0.511	0.419	0.224	0.339	0.311	0.308	0.366	0.254	0.822	0.594	0.388	0.167	0.138	0.522	0.436	0.357	0.267	0.217
EKVX	0.322	0.334	0.298	0.248	0.244	0.436	0.396	0.486	0.382	0.323	0.942	0.989	0.771	0.48	0.317	0.307	0.351	0.281	0.207	0.244
NCI-H460	0.166	0.263	0.142	0.133	0.0197	0.0585	0.0645	0.0766	0.0835	0.0565	0.491	0.463	0.285	0.0307	0.0143	0.438	0.372	0.203	0.0553	0.0422
NCI-H1993	0.521	0.583	0.571	0.421	0.526	0.619	0.666	0.607	0.583	0.475	0.674	0.704	0.733	0.695	0.728	0.537	0.54	0.559	0.645	0.466
HCC-78	0.926	0.836	0.899	0.756	0.566	0.913	0.944	0.926	0.929	0.64	0.342	0.32	0.238	0.133	0.104	0.823	0.726	0.595	0.594	0.371
NCI-H2087	0.209	0.178	0.234	0.193	0.173	0.653	0.611	0.61	0.619	0.258	0.983	0.954	0.806	0.64	0.54	0.283	0.302	0.186	0.133	0.106
H3255	0.703	0.588	0.604	0.663	0.421	0.507	0.558	0.528	0.524	0.491	0.637	0.594	0.548	0.363	0.289	0.58	0.556	0.493	0.268	0.218
NCI-H2126	0.592	0.569	0.618	0.547	0.45	0.706	0.784	0.674	0.629	0.559	0.738	0.708	0.614	0.46	0.317	0.557	0.53	0.57	0.418	0.346
LCLC-103H	0.66	0.693	0.693	0.62	0.479	0.466	0.435	0.444	0.465	0.419	1.04	1.09	0.894	0.783	0.571	0.714	0.72	0.757	0.488	0.472
RERF-LC-KJ	0.808	0.971	0.91	0.893	0.689	0.507	0.46	0.484	0.457	0.376	0.846	0.704	0.866	0.647	0.427	0.712	0.685	0.663	0.369	0.285
EBC-1											0.832	0.984	0.542	0.179	0.116					
HCC-15	0.413	0.423	0.343	0.325	0.278	0.225	0.228	0.217	0.218	0.242	0.86	0.919	0.705	0.488	0.243	0.622	0.508	0.46	0.261	0.151
NCI-H1650	0.535	0.497	0.575	0.526	0.39	0.391	0.384	0.377	0.376	0.3						0.381	0.394	0.43	0.258	0.273
COR-L 105	0.421	0.411	0.415	0.403	0.465	1.13	1.25	0.967	1.16	0.642	0.842	0.925	0.844	0.608	0.345	0.64	0.641	0.595	0.466	0.337
NCI-H596	0.772	0.87	0.735	0.724	0.593	0.569	0.488	0.523	0.467	0.393	0.533	0.496	0.272	0.411	0.356	0.9	1.11	0.869	1.01	0.66
LXF-289	0.676	0.769	0.671	0.67	0.462	0.945	1	0.873	0.923	0.647	1.01	1.02	0.931	0.808	0.588	0.422	0.381	0.446	0.358	0.31
NCI-H1703											0.41	0.413	0.522	0.504	0.428					
NCI-H2170	0.936	0.987	0.84	0.919	0.399	0.263	0.274	0.259	0.258	0.247	0.77	0.747	0.771	0.521	0.345	0.465	0.468	0.376	0.281	0.236
NCI-H522	0.797	0.901	0.681	0.758	0.592	0.915	0.966	0.941	0.972	0.963						0.65	0.684	0.693	0.666	0.639
LOU-NH91	0.78	0.816	0.828	0.782	0.716	0.353	0.363	0.349	0.337	0.456	0.701	0.747	0.718	0.592	0.605	0.813	0.788	0.802	0.771	0.689

Cell Line	relative viability ([1]; first compound 0.02 µM)	relative viability ([1]; first compound 0.06325 µM)	relative viability ([1]; first compound 0.2 µM)	relative viability ([1]; first compound 0.6325 µM)	relative viability ([1]; first compound 2 µM)	relative viability ([2]; first compound 0.02 µM)	relative viability ([2]; first compound 0.06325 µM)	relative viability ([2]; first compound 0.2 µM)	relative viability ([2]; first compound 0.6325 µM)	relative viability ([2]; first compound 2 µM)	relative viability (Entinostat + Alpelisib; first compound 0.02 µM)	relative viability (Entinostat + Alpelisib; first compound 0.06325 µM)	relative viability (Entinostat + Alpelisib; first compound 0.2 µM)	relative viability (Entinostat + Alpelisib; first compound 0.6325 µM)	relative viability (Entinostat + Alpelisib; first compound 2 µM)	relative viability (Entinostat + Decitabine; first compound 0.02 µM)	relative viability (Entinostat + Decitabine; first compound 0.06325 µM)	relative viability (Entinostat + Decitabine; first compound 0.2 µM)	relative viability (Entinostat + Decitabine; first compound 0.6325 µM)	relative viability (Entinostat + Decitabine; first compound 2 µM)
NCI-H1355	0.452	0.427	0.395	0.367	0.372	1.04	1.05	1.01	0.944	0.924	0.83	0.806	0.641	0.514	0.426	0.356	0.335	0.3	0.315	0.266
NCI-H322M	0.449	0.519	0.521	0.412	0.475	0.685	0.588	0.565	0.628	0.621	0.817	0.826	0.738	0.866	0.675	0.742	0.722	0.787	0.725	0.665
NCI-H1395	0.962	0.956	0.898	1.02	0.875	0.941	0.87	0.735	0.643	0.692	1.09	1.22	1.02	0.81	0.522	0.693	0.726	0.626	0.556	0.492
NCI-H2023	0.509	0.717	0.564	0.416	0.246	0.278	0.222	0.196	0.166	0.134	0.475	0.5	0.319	0.165	0.128	0.199	0.14	0.157	0.0887	0.0748
NCI-H1666	1.04	0.865	0.753	0.751	0.694	0.861	0.812	0.699	0.749	0.546	1.21	0.856	0.872	0.318	0.322	0.887	0.793	0.707	0.669	0.511
HARA	0.728	0.738	0.848	0.433	0.601	0.253	0.261	0.204	0.246	0.141	0.819	0.861	0.658	0.582	0.484	0.602	0.521	0.557	0.456	0.276
Calu-6											1.01	1.06	0.941	0.624	0.457					
NCI-H2342	0.743	0.963	0.807	0.805	0.79	0.839	0.739	0.753	0.796	0.713						0.806	0.704	0.65	0.607	0.557
ChaGo-K-1	0.906	0.987	0.941	0.804	0.602	0.271	0.256	0.251	0.237	0.237						0.572	0.545	0.543	0.443	0.45
NCI-H1563						0.795	0.699	0.767	0.694	0.685	0.908	0.883	0.826	0.807	0.636					
IA-LM											0.706	0.741	0.98	0.566	0.481					
NCI-H1299											1.09	1.02	1.06	0.883	0.815					
CAL-12T	0.28	0.324	0.272	0.354	0.303	1.2	1.27	1.17	1.32	0.412	1.22	1.18	1.41	1.08	0.962					
NCI-H727	0.378	0.332	0.374	0.416	0.364						0.708	0.669	0.545	0.264	0.297	0.913	1.35	1.03	0.853	0.681
SW 900	0.596	0.965	0.807	0.583	0.513	0.497	0.476	0.455	0.469	0.254						0.429	0.419	0.391	0.302	0.286
ABC-1											0.949	1.14	0.966	0.661	0.48	1.04	1.41	1.1	0.91	0.626
NCI-H1648	0.54	0.534	0.456	0.405	0.482	0.743	0.893	0.819	0.754	0.554						0.476	0.524	0.416	0.326	0.285
A549											0.851	0.729	0.704	0.515	0.238	0.27	0.251	0.205	0.177	0.0922
NCI-H2228	0.578	0.615	0.449	0.48	0.454	0.348	0.345	0.299	0.26	0.144	0.785	0.608	0.473	0.325	0.273					
